In patent US20250282749A1 (Tango Therapeutics, Inc., priority 2022, published 2025):

Tests used:
Assay type in all cases: cell-based
[1] = system: PRMT5 (SDMA) in HAP1 MTAP-deleted cell line; test: SDMA in-cell western assay, HAP1 MTAP-deleted cell line; details: for IC50 / IC90: Homo sapiens, SDMA in-cell western, HAP1 MTAP-deleted (MTAP-null) cell line; for Hap1 MTAP intact/deleted ratio: ratio of SDMA in-cell western IC50 in HAP1 MTAP-intact to IC50 in HAP1 MTAP-deleted cell line
Text: (§1) HAP1 MTAP-intact is a cell line in which endogenous levels of MTAP are expressed, and HAP1 MTAP-deleted is an MTAP-null cell line.

[2] = system: HAP1 MTAP-deleted cell line; test: viability assay for the MTAP-deleted cell line; details: Homo sapiens
[3] = system: PRMT5 (SDMA) in HAP1 MTAP-intact cell line; test: SDMA in-cell western assay, HAP1 MTAP-intact cell line; details: Homo sapiens, HAP1 MTAP-intact cell line (endogenous MTAP), read-out: Hap 1 MTAP intact IC50
Text: as §1

| IC50 [1] [nM] | IC90 [1] [nM] | IC50 [3] [nM] | Compound | Hap1 MTAP intact/deleted ratio [1] | IC50 [2] [nM] |
| --- | --- | --- | --- | --- | --- |
| 5 to 50 | 75 to 125 | > 50 | CCc1cc(NC(=O)C(=O)N2C[C@@H](C)N(CC(C)(C)C)C[C@@H]2c2ccccc2)cnc1N [Compound 121, N-(6-amino-5-ethylpyridin-3-yl)-2-((2S,5R)-5-methyl-4neopentyl-2-phenylpiperazin-1-yl)-2-oxoacetamide] | B (an IC50 ratio greater than or equal to 15 fold but lower than 30 fold) | < 100 |
| 5 to 50 | < 75 | > 50 | C[C@@H]1CN(C(=O)C(=O)Nc2cncc3[nH]ncc23)[C@@H](c2ccc(F)cc2)CN1C(=O)C(C)(C)C [Compound 125, 2-[(2R,5R)-4-(2,2-dimethylpropanoyl)-2-(4-fluorophenyl)-5-methyl-piperazin-1-yl]-2-oxo-N-(^1H-pyrazolo[3,4-c]pyridin-4-yl)acetamide] | A (an IC50 ratio greater than or equal to 30 fold) | 100 to 1000 |
| 5 to 50 | < 75 | 5 to 50 | C[C@@H]1CN(C(=O)C(=O)Nc2cnc(N)c(C3COC3)c2)[C@@H](c2ccccc2)CN1C(=O)C(C)(C)C [Compound 127, N-(6-amino-5-(oxetan-3-yl)pyridin-3-yl)-2-((2S,5R)-5-methyl-2-phenyl-4-pivaloylpiperazin-1-yl)-2-oxoacetamide] | C (an IC50 ratio of less than 15 fold) | < 100 |
| 5 to 50 | 75 to 125 | > 50 | Cc1ccc([C@H]2CN(C(=O)C3(C(F)(F)F)CC3)[C@H](C)CN2C(=O)C(=O)Nc2cnc(N)c(C)c2)cc1 [Compound 128, N-(6-amino-5-methylpyridin-3-yl)-2-((2S,5R)-5-methyl-2-(p-tolyl)-4-(1-(trifluoromethyl)cyclopropanecarbonyl)piperazin-1-yl)-2-oxoacetamide] | B (an IC50 ratio greater than or equal to 15 fold but lower than 30 fold) | < 100 |
| 5 to 50 | > 125 | > 50 | C[C@@H]1CN(C(=O)C(=O)Nc2cncc3cn[nH]c23)[C@@H](c2ccc(F)cc2)CN1C(=O)OC(C)(C)C [Compound 129, (2R,5S)-tert-butyl 4-(2-((1H-pyrazolo[4,3-c]pyridin-7-yl)amino)-2-oxoacetyl)-5-(4-fluorophenyl)-2-methylpiperazine-1-carboxylate] | A (an IC50 ratio greater than or equal to 30 fold) | 100 to 1000 |
| < 5 | < 75 | 5 to 50 | CCc1cc(NC(=O)C(=O)N2C[C@@H](C)N(C(=O)C(C)(C)C)C[C@@H]2c2ccc(N3CCN(C)CC3)cc2)cnc1N [Compound 130, N-(6-amino-5-ethylpyridin-3-yl)-2-((2S,5R)-5-methyl-2-(4-(4-methylpiperazin-1-yl)phenyl)-4-pivaloylpiperazin-1-yl)-2-oxoacetamide] | C (an IC50 ratio of less than 15 fold) | < 100 |
| < 5 | 75 to 125 | > 50 | Cc1cc(NC(=O)C(=O)N2C[C@@H](C)N(C(=O)C3(C(F)(F)F)CC3)C[C@@H]2c2ccc(Cl)cc2)cnc1N [Compound 131, N-(6-amino-5-methylpyridin-3-yl)-2-((5R)-2-(4-chlorophenyl)-5-methyl-4-(1-(trifluoromethyl)cyclopropanecarbonyl)piperazin-1-yl)-2-oxoacetamide] | C (an IC50 ratio of less than 15 fold) | 100 to 1000 |
| < 5 | < 75 | 5 to 50 | CCc1cc(NC(=O)C(=O)N2C[C@@H](C)N(C(=O)C3(C(F)(F)F)CC3)C[C@@H]2c2ccc(N3CCN(C)CC3)cc2)cnc1N [Compound 132, N-(6-amino-5-ethylpyridin-3-yl)-2-((2S,5R)-5-methyl-2-(4-(4-methylpiperazin-1-yl)phenyl)-4-(1-(trifluoromethyl)cyclopropanecarbonyl)piperazin-1-yl)-2-oxoacetamide] | C (an IC50 ratio of less than 15 fold) | < 100 |
| < 5 | < 75 | 5 to 50 | CCc1cc(NC(=O)C(=O)N2C[C@@H](C)N(C(=O)C3(C(F)(F)F)CC3)C[C@@H]2c2ccc(F)c(Cl)c2)cnc1N [Compound 139, N-(6-amino-5-ethylpyridin-3-yl)-2-((2S,5R)-2-(3-chloro-4-fluorophenyl)-5-methyl-4-(1-(trifluoromethyl)cyclopropanecarbonyl)piperazin-1-yl)-2-oxoacetamide] | B (an IC50 ratio greater than or equal to 15 fold but lower than 30 fold) | < 100 |
| < 5 | < 75 | 5 to 50 | CCc1cc(NC(=O)C(=O)N2C[C@@H](C)N(C(=O)C(C)(C)C)C[C@@H]2c2ccccc2)cnc1N [Compound 140, N-(6-amino-5-ethylpyridin-3-yl)-2-((2S,5R)-5-methyl-2-phenyl-4-pivaloylpiperazin-1-yl)-2-oxoacetamide] | C (an IC50 ratio of less than 15 fold) | < 100 |
| 5 to 50 | < 75 | > 50 | CCc1cc(NC(=O)C(=O)N2C[C@@H](C)N(C(=O)OC(C)(C)C)C[C@@H]2c2ccc(F)cc2)cnc1N [Compound 145, (2R,5S)-tert-butyl 4-(2-((6-amino-5-ethylpyridin-3-yl)amino)-2-oxoacetyl)-5-(4-fluorophenyl)-2-methylpiperazine-1-carboxylate] | B (an IC50 ratio greater than or equal to 15 fold but lower than 30 fold) | < 100 |

The remaining lines, values behind:

| Compound | IC50 [1] [nM] | IC90 [1] [nM] | IC50 [3] [nM] | Hap1 MTAP intact/deleted ratio [1] | IC50 [2] [nM] |
| --- | --- | --- | --- | --- | --- |
| CC(C)CN1C[C@H](c2ccccc2)N(C(=O)C(=O)Nc2cnc(N)c(C3CC3)c2)C[C@H]1C [Compound 122, N-(6-amino-5-cyclopropylpyridin-3-yl)-2-((2S,5R)-4-isobutyl-5-methyl-2-phenylpiperazin-1-yl)-2-oxoacetamide] | 5 to 50 | > 125 | > 50 | B (an IC50 ratio greater than or equal to 15 fold but lower than 30 fold) | < 100 |
| CC(C)C(=O)N1CCN(C(=O)C(=O)Nc2cnc(N)c3cn[nH]c23)[C@@H](c2ccccc2)C1 [Compound 126, (S)—N-(4-amino-1H-pyrazolo[4,3-c]pyridin-7-yl)-2-(4-isobutyryl-2-phenylpiperazin-1-yl)-2-oxoacetamide] | < 5 | < 75 | > 50 | A (an IC50 ratio greater than or equal to 30 fold) | 100 to 1000 |
| CC(C)C(=O)N1C[C@H](c2cccc(Cl)c2)N(C(=O)C(=O)Nc2cnc(N)c(C3CC3)c2)C[C@H]1C [Compound 133, N-(6-amino-5-cyclopropylpyridin-3-yl)-2-((2S,5R)-2-(3-chlorophenyl)-4-isobutyryl-5-methylpiperazin-1-yl)-2-oxoacetamide] | 5 to 50 | < 75 | > 50 | B (an IC50 ratio greater than or equal to 15 fold but lower than 30 fold) | < 100 |
| Cc1cc(NC(=O)C(=O)N2C[C@@H](C)N(C(=O)C(C)(C)CN3CCN(C)CC3)C[C@@H]2c2ccccc2)cnc1N [Compound 134] | 5 to 50 | > 125 | 5 to 50 | C (an IC50 ratio of less than 15 fold) | < 100 |
| C[C@@H]1CN(C(=O)C(=O)Nc2cnc(N)c3cn[nH]c23)[C@@H](c2ccc(F)cc2)CN1C [Compound 135] | < 5 | 75 to 125 | > 50 | A (an IC50 ratio greater than or equal to 30 fold) | 100 to 1000 |
| Cc1cc(NC(=O)C(=O)N2C[C@@H](C)N(C(=O)C3(C(F)(F)F)CC3)C[C@@H]2c2cccc(C(F)(F)F)c2)cnc1N [Compound 137, N-(6-amino-5-methylpyridin-3-yl)-2-((2S,5R)-5-methyl-4-(1-(trifluoromethyl)cyclopropanecarbonyl)-2-(3-(trifluoromethyl)phenyl)piperazin-1-yl)-2-oxoacetamide] | 5 to 50 | > 125 | > 50 | B (an IC50 ratio greater than or equal to 15 fold but lower than 30 fold) | < 100 |
| Cc1cc(NC(=O)C(=O)N2C[C@@H](C)N(C(=O)C3(C(F)(F)F)CC3)C[C@@H]2c2ccsc2)cnc1N [Compound 138, N-(6-amino-5-methyl-3-pyridyl)-2-[(2S,5R)-5-methyl-2-(3-thienyl)-4-[1-(trifluoromethyl)cyclopropanecarbonyl]piperazin-1-yl]-2-oxo-acetamide] | 5 to 50 | > 125 | > 50 | A (an IC50 ratio greater than or equal to 30 fold) | < 100 |
| C[C@@H]1CN(C(=O)C(=O)Nc2cncc3cn[nH]c23)[C@@H](c2ccc(N3CCN(C)CC3)cc2)CN1C(=O)C(C)(C)C [Compound 142, 2-((2S,5R)-5-methyl-2-(4-(4-methylpiperazin-1-yl)phenyl)-4-pivaloylpiperazin-1-yl)-2-oxo-N-(1H-pyrazolo[4,3-c]pyridin-7-yl)acetamide] | 5 to 50 | < 75 | > 50 | C (an IC50 ratio of less than 15 fold) | < 100 |
| Cc1cc(NC(=O)C(=O)N2C[C@@H](C)N(C(=O)C3(C)CC3)C[C@@H]2c2ccccc2)cnc1N [Compound 143, N-(6-amino-5-methylpyridin-3-yl)-2-((2S,5R)-5-methyl-4-(1-methylcyclopropanecarbonyl)-2-phenylpiperazin-1-yl)-2-oxoacetamide] | 5 to 50 | > 125 | > 50 | C (an IC50 ratio of less than 15 fold) | < 100 |
